Where a name gives a salt, the structure may show the parent alone.
Assay: degradation kinetics of fluvastatin in aqueous solution at various pH
Format: physicochemical

CC(C)n1c(/C=C/C(O)CC(O)CC(=O)O)c(-c2ccc(F)cc2)c2ccccc21 (stereo not drawn) [fluvastatin, R*,S*-(E)-(±)-7-[3-(4-fluorophenyl)-1-(1-methyl-ethyl)-1H-indol-2-yl]-3,5-dihydroxy-6-heptenoic acid, sodium salt]
% fluvastatin remaining at 37° C. after 1 hour (pH 1.0, 37° C.): 10.9%
% fluvastatin remaining at 37° C. after 24 hrs (pH 1.0, 37° C.): 0%
% fluvastatin remaining at 37° C. after 1 hour (pH 4.0, 37° C.): 86.7%
% fluvastatin remaining at 37° C. after 24 hrs (pH 4.0, 37° C.): 25.2%
% fluvastatin remaining at 37° C. after 1 hour (pH 6.0, 37° C.): 99.6%
% fluvastatin remaining at 37° C. after 24 hrs (pH 6.0, 37° C.): 97.1%
% fluvastatin remaining at 37° C. after 1 hour (pH 7.8, 37° C.): 98.3%
% fluvastatin remaining at 37° C. after 24 hrs (pH 7.8, 37° C.): 98.0%
